A value given as a limit tells only on which side of the number the result lay.

Test [1] addresses T1, ROS1-wt (Homo sapiens, UniProt P08922).
T1 construct: purchased Carna 08-163
As to the kind of experiment: Biochemical kinase assay, ROS1-wt kinase domain. Particulars: apparent inhibitory constant, Morrison equation; ATP 2 mM in substrate solution; read-out: ROS1-wt Ki^app. Summed up:
(§1)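 Compounds, as 100-fold DMSO stocks, were dispensed first, then substrate mix was added (ATP 2 mM, AQT0101 26 μM, in 50 mM HEPES pH 7.5/10 mM MgCl2). Reactions ran at 30 °C with fluorescence logged every 2 min over 120 min. Apparent inhibition constants came from fitting rates to Morrison's tight-binding equation.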

Test [2] addresses T2, TRKA-wt (Homo sapiens, UniProt P04629).
T2 construct: or TRKA-wt (1 nM, BPS Bio, 40280) kinase domains in buffer; purchased BPS Bio 40280
As to the kind of experiment: Biochemical kinase assay, TRKA-wt kinase domain. The note with it: apparent inhibitory constant, Morrison equation; ATP 2 mM in substrate solution; read-out: TRKA-wt Ki^app. Summed up:
(§2)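 Kinase domains (in kinase solution: ROS1-G2032R 0.5 nM, ROS1-wt 0.6 nM, TRKA 1 nM, ALK L1196M/G1202R 3 nM) were mixed with compound and a substrate solution of 2 mM ATP plus 26 μM fluorogenic AQT0101 (ALK, ROS1) or AQT0104 (TRKA) in HEPES pH 7.5/MgCl2. Fluorescence was followed for 120 min at 30° C; Ki^app was obtained by Morrison fit of initial rates.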

Test [3] deals with T3, ROS1-G2032R (Homo sapiens, UniProt P08922, G2032R).
T3 construct: purchased SignalChem R14-12BG
T3 sequence (P08922 1945-2222 G2032R limits assumed): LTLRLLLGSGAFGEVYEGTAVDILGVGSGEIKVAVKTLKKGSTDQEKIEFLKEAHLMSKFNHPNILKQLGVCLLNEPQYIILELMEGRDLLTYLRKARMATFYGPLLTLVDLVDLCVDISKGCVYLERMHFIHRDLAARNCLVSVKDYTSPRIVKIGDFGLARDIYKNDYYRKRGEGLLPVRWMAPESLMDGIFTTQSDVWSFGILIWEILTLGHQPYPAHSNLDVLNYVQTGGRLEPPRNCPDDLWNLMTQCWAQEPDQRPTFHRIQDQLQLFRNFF
Briefly: Biochemical kinase assay, ROS1-G2032R kinase domain. Particulars: apparent inhibitory constant, Morrison equation; ATP 2 mM in substrate solution; read-out: ROS1-G2032R Ki^app. Summed up:
as §1

In test [4] the test system is TPM3-NTRK1-wt IC50 / primary target IC50 (e.g. CD74-ROS1-wt). Briefly: TRKA selectivity in Ba/F3 cells (TRKA potency divided by primary target potency). The test is classed as cell-based. The note with it: for TPM3-NTRK1-wt/CD74-ROS1-G2032R selectivity ratio: TRKA potency / CD74-ROS1-G2032R potency; for TPM3-NTRK1-wt/CD74-ROS1-wt selectivity ratio: TRKA potency / CD74-ROS1-wt potency; for TPM3-NTRK1-wt/EML4-ALK-L1196M-G1202R selectivity ratio: TRKA potency / EML4-ALK-L1196M-G1202R potency; for TPM3-NTRK1-wt/EML4-ALK-wt selectivity ratio: TRKA potency / EML4-ALK-wt potency. The procedure: TRKA selectivity was calculated by dividing a compound's TRKA potency by its primary target potency (e.g. TPM3-NTRK1-wt IC50/CD74-ROS1-wt IC50). Compound selectivity can be interpreted by binning ratio values: bin A for very high selectivity, ratio >30-fold; bin B for high selectivity, ratio >10-fold; bin C for moderate selectivity, ratio ≥1; and bin D for low selectivity, ratio <1. […] (nd=not determined).

The target of test [5] is T4, Ba/F3 cells TPM3-TRKA (Homo sapiens, UniProt P04629).
T4 construct: host or cells: Ba/F3 (RIKEN), retroviral pMSCV-puro; the other entry of the earlier key: TPM3 (P06753, Tropomyosin alpha-3 chain)
T4 sequence (P04629 510-796 limits assumed): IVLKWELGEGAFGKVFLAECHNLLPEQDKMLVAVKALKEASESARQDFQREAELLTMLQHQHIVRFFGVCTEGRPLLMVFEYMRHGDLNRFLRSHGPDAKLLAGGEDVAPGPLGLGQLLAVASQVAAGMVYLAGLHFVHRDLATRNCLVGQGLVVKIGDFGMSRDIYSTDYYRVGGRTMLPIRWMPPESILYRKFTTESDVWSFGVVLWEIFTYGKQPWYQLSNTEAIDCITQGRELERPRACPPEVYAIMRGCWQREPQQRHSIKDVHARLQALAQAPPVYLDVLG
Briefly: Ba/F3 cell proliferation assay, TPM3-TRKA. The test is classed as cell-based. The note with it: 72 hours, CellTiter-Glo, read-out: TPM3-NTRK1-wt IC50. Summed up: (§3)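 Luminescence from CellTiter-Glo after 72 hours of compound exposure measured viability of IL-3-independent Ba/F3 cells carrying the retrovirally introduced fusion. Cells were plated at 1,000 per well one day before 3-fold serial dilutions were added. IC50 values came from four-parameter logistic regression.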
(In general: ATP-based viability assays read luminescence as a measure of living cells.)

In test [6] the target is T5, ALK L1196M/G1202R (Homo sapiens, UniProt Q9UM73, G1202R/L1196M).
T5 construct: purchased SignalChem A19-12NG
T5 sequence (Q9UM73 1116-1392 L1196M/G1202R limits assumed): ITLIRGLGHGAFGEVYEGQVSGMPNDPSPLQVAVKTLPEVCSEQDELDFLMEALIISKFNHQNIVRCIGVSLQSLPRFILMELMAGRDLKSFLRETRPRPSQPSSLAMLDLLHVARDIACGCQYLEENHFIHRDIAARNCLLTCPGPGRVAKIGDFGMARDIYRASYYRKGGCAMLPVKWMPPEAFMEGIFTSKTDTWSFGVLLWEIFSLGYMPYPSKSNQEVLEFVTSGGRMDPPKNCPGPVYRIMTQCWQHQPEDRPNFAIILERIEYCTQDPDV
As to the kind of experiment: Biochemical kinase assay, ALK L1196M/G1202R kinase domain. The note with it: apparent inhibitory constant, Morrison equation; ATP 2 mM in substrate solution; read-out: ALK-L1196M-G1202R Ki^app. Summed up:
as §2

The target in test [7] is T6, Ba/F3 cells CD74-ROS1 wild-type (wt) (Homo sapiens, UniProt P08922).
T6 construct: fusion of the C-terminus of ROS1 with the N-terminus of various partner proteins; host or cells: Ba/F3 (RIKEN), retroviral pMSCV-puro; the other entry of the earlier key: CD74 (P04233, HLA class II histocompatibility antigen gamma chain)
T6 sequence (P08922 1883-2347 limits assumed): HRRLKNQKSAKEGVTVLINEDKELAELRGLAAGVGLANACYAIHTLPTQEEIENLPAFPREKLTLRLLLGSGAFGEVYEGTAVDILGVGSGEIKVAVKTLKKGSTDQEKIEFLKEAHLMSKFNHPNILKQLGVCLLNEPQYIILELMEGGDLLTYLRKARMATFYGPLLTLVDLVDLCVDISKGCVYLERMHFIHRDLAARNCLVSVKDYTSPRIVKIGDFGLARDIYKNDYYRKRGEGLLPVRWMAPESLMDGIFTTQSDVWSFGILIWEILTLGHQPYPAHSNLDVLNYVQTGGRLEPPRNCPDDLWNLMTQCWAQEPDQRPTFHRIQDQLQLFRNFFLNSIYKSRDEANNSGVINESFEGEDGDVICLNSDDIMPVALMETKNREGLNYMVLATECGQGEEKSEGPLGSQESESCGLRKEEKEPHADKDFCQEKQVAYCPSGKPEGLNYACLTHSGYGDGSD
As to the kind of experiment: Ba/F3 cell proliferation assay, CD74-ROS1 wild-type. Type of test: cell-based. The note with it: 72 hours, CellTiter-Glo. Summed up:
(§4)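 Cells were seeded 1 day, then exposed to a 3-fold compound dilution series for 72 hours. Viability was read by CellTiter-Glo luminescence; IC50 came from four-parameter logistic fitting of percent inhibition.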

The target in test [8] is T7, Ba/F3 cells CD74-ROS1 G2032R (Homo sapiens, UniProt P08922, G2032R).
T7 construct: fusion of the C-terminus of ROS1 with the N-terminus of various partner proteins; host or cells: Ba/F3 (RIKEN), retroviral pMSCV-puro; the other entry of the earlier key: CD74 (P04233, HLA class II histocompatibility antigen gamma chain)
T7 sequence (P08922 1883-2347 G2032R limits assumed): as the sequence (P08922 1883-2347 limits assumed) above, with G150R counted along it
Briefly: Ba/F3 cell proliferation assay, CD74-ROS1 G2032R. The test is classed as cell-based. Particulars: 72 hours, CellTiter-Glo. Summed up:
as §4

Test [9] has as its target T8, Ba/F3 cells EML4-ALK wt (variant 1) (Homo sapiens, UniProt Q9UM73).
T8 construct: echinoderm microtubule-associated protein-like 4 (EML4) gene and the ALK tyrosine kinase domain; host or cells: Ba/F3 (RIKEN), retroviral pMSCV-puro; the other entry of the earlier key: EML4 (Q9HC35, Echinoderm microtubule-associated protein-like 4)
Briefly: Ba/F3 cell proliferation assay, EML4-ALK wt (variant 1). Type of test: cell-based. The note with it: 72 hours, CellTiter-Glo. Summed up:
as §3

Test [10] addresses T9, Ba/F3 cells EML4-ALK L1196M/G1202R (variant 1) (Homo sapiens, UniProt Q9UM73, G1202R/L1196M).
T9 construct: echinoderm microtubule-associated protein-like 4 (EML4) gene and the ALK tyrosine kinase domain; host or cells: Ba/F3 (RIKEN), retroviral pMSCV-puro; the other entry of the earlier key: EML4 (Q9HC35, Echinoderm microtubule-associated protein-like 4)
As to the kind of experiment: Ba/F3 cell proliferation assay, EML4-ALK L1196M/G1202R (variant 1). Type of test: cell-based. Particulars: 72 hours, CellTiter-Glo. Summed up:
as §3

Test [11] addresses T10, ALK-wt (Homo sapiens, UniProt Q9UM73).
T10 construct: purchased Carna 08-518
Briefly: Biochemical kinase assay, ALK-wt kinase domain. The note with it: apparent inhibitory constant, Morrison equation; ATP 2 mM in substrate solution; read-out: ALK-wt Ki^app. Summed up: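 Apparent Ki values come from fitting initial reaction rates against inhibitor concentration to the Morrison equation. Rates were taken from the linear phase of fluorogenic substrate phosphorylation (AQT0101 for ALK and ROS1, AQT0104 for TRKA; 26 μM in substrate solution with 2 mM ATP), monitored at 485 nm over 120 min at 30° C.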

T9 sequence (Q9UM73 with tags, fused parts or gaps L1196M/G1202R): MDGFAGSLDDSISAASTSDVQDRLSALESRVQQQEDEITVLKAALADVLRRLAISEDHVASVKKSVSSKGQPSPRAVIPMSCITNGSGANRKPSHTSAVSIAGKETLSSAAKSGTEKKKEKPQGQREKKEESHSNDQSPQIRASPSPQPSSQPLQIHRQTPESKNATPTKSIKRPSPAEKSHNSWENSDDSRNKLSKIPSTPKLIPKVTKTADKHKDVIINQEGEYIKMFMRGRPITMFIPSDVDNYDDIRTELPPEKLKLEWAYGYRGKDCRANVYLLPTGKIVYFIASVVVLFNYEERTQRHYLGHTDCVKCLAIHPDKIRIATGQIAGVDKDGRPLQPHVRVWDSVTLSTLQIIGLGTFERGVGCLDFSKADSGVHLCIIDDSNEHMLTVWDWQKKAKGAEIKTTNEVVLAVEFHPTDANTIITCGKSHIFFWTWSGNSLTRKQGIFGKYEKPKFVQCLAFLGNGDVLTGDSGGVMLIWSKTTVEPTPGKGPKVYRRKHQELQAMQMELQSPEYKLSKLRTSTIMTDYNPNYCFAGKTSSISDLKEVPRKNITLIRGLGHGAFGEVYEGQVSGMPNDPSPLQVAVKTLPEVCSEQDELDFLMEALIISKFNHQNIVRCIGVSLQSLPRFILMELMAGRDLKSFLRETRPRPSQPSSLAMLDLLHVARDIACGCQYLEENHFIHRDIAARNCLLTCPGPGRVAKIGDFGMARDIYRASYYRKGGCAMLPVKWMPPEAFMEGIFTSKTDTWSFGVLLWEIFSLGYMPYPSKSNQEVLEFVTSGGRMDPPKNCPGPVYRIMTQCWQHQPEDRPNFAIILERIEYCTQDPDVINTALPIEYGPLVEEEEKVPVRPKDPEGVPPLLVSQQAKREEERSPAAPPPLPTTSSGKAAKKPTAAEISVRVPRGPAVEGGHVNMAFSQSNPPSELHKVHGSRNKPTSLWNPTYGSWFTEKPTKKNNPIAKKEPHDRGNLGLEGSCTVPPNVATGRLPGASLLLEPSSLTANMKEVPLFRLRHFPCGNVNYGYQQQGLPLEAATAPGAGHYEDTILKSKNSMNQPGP
T8 sequence (Q9UM73 with tags, fused parts or gaps): as the sequence (Q9UM73 with tags, fused parts or gaps L1196M/G1202R) above, with M635L, R641G counted along it
T10 sequence (Q9UM73 1116-1392 limits assumed): as the sequence (Q9UM73 1116-1392 L1196M/G1202R limits assumed) above, with M81L, R87G counted along it
T1 sequence (P08922 1945-2222 limits assumed): as the sequence (P08922 1945-2222 G2032R limits assumed) above, with R88G counted along it
T2 sequence (P04629 510-781 limits assumed): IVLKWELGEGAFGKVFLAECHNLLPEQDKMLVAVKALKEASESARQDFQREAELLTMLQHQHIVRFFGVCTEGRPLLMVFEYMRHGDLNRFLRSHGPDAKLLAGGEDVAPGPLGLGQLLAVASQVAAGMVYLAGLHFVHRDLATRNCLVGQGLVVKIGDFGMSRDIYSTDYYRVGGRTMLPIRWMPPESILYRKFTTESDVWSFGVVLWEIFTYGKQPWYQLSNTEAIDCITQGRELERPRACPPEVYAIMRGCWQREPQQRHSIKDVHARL

Turning to `C[C@H]1Oc2cc(cnc2N)-c2c(cnn2C2CC2)Cc2nn(C)nc2-c2ccc(F)cc21` [Example 14, (19R)-3-cyclopropyl-16-fluoro-10,19-dimethyl-20-oxa-3,4,9,10,11,23-hexaazapentacyclo[19.3.1.0^2,^6.0^8,^12.0^13,^18]pentacosa-1(24),2(6),4,8,11,13,15,17,21(25),22-decaen-22-amine], the Ki in test [1] is less than 50 nM; in test [2], 50 to 500 nM; in test [3], less than 50 nM; in [6], less than 50 nM; in test [11], less than 50 nM. Also, the TPM3-NTRK1-wt/CD74-ROS1-G2032R selectivity ratio result in [4] is “A (bin A for very high selectivity, ratio >30-fold)”. Moreover, the TPM3-NTRK1-wt/CD74-ROS1-wt selectivity ratio result in test [4] is reported as “A (bin A for very high selectivity, ratio >30-fold)”. In test [4], the TPM3-NTRK1-wt/EML4-ALK-L1196M-G1202R selectivity ratio entry is “C (bin C for moderate selectivity, ratio ≥1)”. For the same molecule, in [4], the TPM3-NTRK1-wt/EML4-ALK-wt selectivity ratio result is on record as “A (bin A for very high selectivity, ratio >30-fold)”. The IC50 – broadly, the point on the concentration scale where inhibition reaches its midpoint – in test [5] was in the range of 50 to 500 nM; in [7], 0.1 to 50 nM; in [8], 0.1 to 50 nM; in test [9] it was 0.1 to 50 nM; in [10] it was 50 to 500 nM.
`CCn1ncc2c1-c1cnc(N)c(c1)O[C@H](C)c1cc(F)ccc1-c1cc(F)nn1C2` [Example 15, (19R)-3-ethyl-10,16-difluoro-19-methyl-20-oxa-3,4,8,9,23-pentaazapentacyclo[19.3.1.0^2,^6.0^8,^12.0^13,^18]pentacosa-1(24),2(6),4,9,11,13,15,17,21(25),22-decaen-22-amine]: the Ki is less than 50 nM in [1]; 50 to 500 nM in [2]; less than 50 nM in test [3]; less than 50 nM in test [6]; less than 50 nM in test [11]. Moreover, the TPM3-NTRK1-wt/CD74-ROS1-G2032R selectivity ratio result in test [4] was “A (bin A for very high selectivity, ratio >30-fold)”. For the same molecule, in test [4], the TPM3-NTRK1-wt/CD74-ROS1-wt selectivity ratio entry is “A (bin A for very high selectivity, ratio >30-fold)”. Moreover, the TPM3-NTRK1-wt/EML4-ALK-L1196M-G1202R selectivity ratio entry in [4] was “C (bin C for moderate selectivity, ratio ≥1)”. The TPM3-NTRK1-wt/EML4-ALK-wt selectivity ratio result in test [4] is on record as “A (bin A for very high selectivity, ratio >30-fold)”. Further, the concentration for half-maximal inhibition (IC50) lay within 50 to 500 nM in test [5]; 0.1 to 50 nM in [7]; 0.1 to 50 nM in test [8]; 0.1 to 50 nM in test [9]; 0.1 to 50 nM in test [10].
With `CCn1ncc2c1-c1cnc(N)c(c1)O[C@H](C)c1cc(F)ccc1-c1cc(Cl)nn1C2` [Example 16, (19R)-10-chloro-3-ethyl-16-fluoro-19-methyl-20-oxa-3,4,8,9,23-pentaazapentacyclo[19.3.1.0^2,^6.0^8,^12.0^13,^18]pentacosa-1(24),2(6),4,9,11,13,15,17,21(25),22-decaen-22-amine], the Ki in test [1], in [2], in test [3], in [6] and in test [11] was less than 50 nM each time. For the same molecule, in test [4], the TPM3-NTRK1-wt/CD74-ROS1-G2032R selectivity ratio result is reported as “A (bin A for very high selectivity, ratio >30-fold)”. The TPM3-NTRK1-wt/CD74-ROS1-wt selectivity ratio entry in test [4] is “A (bin A for very high selectivity, ratio >30-fold)”. The TPM3-NTRK1-wt/EML4-ALK-L1196M-G1202R selectivity ratio result in test [4] is recorded as “C (bin C for moderate selectivity, ratio ≥1)”. Besides, the TPM3-NTRK1-wt/EML4-ALK-wt selectivity ratio entry in test [4] is given as “B (bin B for high selectivity, ratio >10-fold)”. Also, the half-inhibitory concentration (IC50) in test [5] was 50 to 500 nM; in test [7] it was 0.1 to 50 nM; in test [8], 0.1 to 50 nM; in [9], 0.1 to 50 nM; in test [10], 0.1 to 50 nM.
Regarding `C[C@H]1Oc2cc(cnc2N)-c2c(C#N)ncn2Cc2ncncc2-c2ccc(F)cc21` [Example 18, (20R)-23-amino-17-fluoro-20-methyl-21-oxa-4,6,9,11,24-pentaazapentacyclo[20.3.1.0^2,^6.0^8,^13.0^14,^19]hexacosa-1(25),2,4,8(13),9,11,14,16,18,22(26),23-undecaene-3-carbonitrile], the Ki in test [1] was less than 50 nM; in test [2] it was more than 500 nM; in test [3] it was 50 to 500 nM; in test [6], 50 to 500 nM; in test [11], less than 50 nM. Further, in [4], the TPM3-NTRK1-wt/CD74-ROS1-G2032R selectivity ratio result was “A (bin A for very high selectivity, ratio >30-fold)”. The TPM3-NTRK1-wt/CD74-ROS1-wt selectivity ratio result in [4] is recorded as “A (bin A for very high selectivity, ratio >30-fold)”. In addition, the TPM3-NTRK1-wt/EML4-ALK-L1196M-G1202R selectivity ratio entry in [4] is “C (bin C for moderate selectivity, ratio ≥1)”. Moreover, the TPM3-NTRK1-wt/EML4-ALK-wt selectivity ratio result in test [4] is “A (bin A for very high selectivity, ratio >30-fold)”. Besides, the IC50 in test [5] was more than 500 nM; in [7], 0.1 to 50 nM; in test [8], 50 to 500 nM; in test [9], 50 to 500 nM; in test [10] it was more than 500 nM.
As to `C[C@H]1Oc2cc(cnc2N)-c2c(C#N)ncn2Cc2ncccc2-c2ccc(F)cc21` [Example 19, (20R)-23-amino-17-fluoro-20-methyl-21-oxa-4,6,9,24-tetraazapentacyclo[20.3.1.0^3,^6.0^8,^13.0^14,^19]hexacosa-1(25),2,4,8(13),9,11,14,16,18,22(26),23-undecaene-3-carbonitrile], the Ki in test [1] is less than 50 nM; in [2], more than 500 nM; in test [3], less than 50 nM; in test [6], less than 50 nM; in test [11], less than 50 nM. Besides, the TPM3-NTRK1-wt/CD74-ROS1-G2032R selectivity ratio result in test [4] was “A (bin A for very high selectivity, ratio >30-fold)”. In addition, in test [4], the TPM3-NTRK1-wt/CD74-ROS1-wt selectivity ratio entry is listed as “A (bin A for very high selectivity, ratio >30-fold)”. Also, in [4], the TPM3-NTRK1-wt/EML4-ALK-L1196M-G1202R selectivity ratio result is recorded as “A (bin A for very high selectivity, ratio >30-fold)”. Also, the TPM3-NTRK1-wt/EML4-ALK-wt selectivity ratio result in test [4] is reported as “A (bin A for very high selectivity, ratio >30-fold)”. The IC50 in [5] was more than 500 nM; in test [7], 0.1 to 50 nM; in test [8] it was 0.1 to 50 nM; in test [9], 0.1 to 50 nM; in [10] it was 0.1 to 50 nM.
